Values quoted from earlier work as cited in US20110144044A1, “Composition and method for increasing post workout recovery” (priority 2009, published 2011).

Tests used:
rats = settings: CNS administration
[1] = after caffeine ingestion 6 mg/kg, intense exercise

Compound	run time to fatigue (rats)	muscle lactate concentration (subjects; [1])	net muscle glycogenolysis (subjects; [1])	plasma epinephrine concentration (subjects; [1])	endurance (subjects; caffeine 6 mg/kg ingested vs placebo, cycling to voluntary exhaustion)	increase in treadmill run time to fatigue (rats)
CCNC(=O)[C@H]1O[C@@H](n2cnc3c(N)ncnc32)[C@H](O)[C@@H]1O [NECA, 5′-N-ethylcarboxamidoadenosine]	significantly reduced run time to fatigue	–	–	–	–	–
Cn1c(=O)c2c(ncn2C)n(C)c1=O [caffeine]	–	increased	unaffected	increased	significant increase in endurance	approximately 60%
